Measured values taken from US6673365B1, “Formulation for treatment of thromboembolism” (priority 1996, dated 2004).

Test: Bioavailability in vivo in the rat after intraduodenal administration
Description: The formulations, A to D, respectively, were tested in vivo in the rat model using intraduodenally catheterized, nonanesthetized animals. Formulations were given as a bolus. Blood samples were withdrawn at certain time points for up to 4 hours after administration of the different formulations. The concentrations of HOOC—CH2—(R)-Cgl-Aze-Pab were analyzed in the plasma and the bioavailabilities calculated from the Area under the curve (AUC) using standard pharmacokinetic methods (Rowland and Tozer, Clinical Pharmacokinetics, concepts and applications, 1980).
The bioavailability increased tenfold to twentyfold when the different formulations mentioned in the invention were used, as compared to controls where only phosphate buffer of pH 8 was used (1). Formulation B was also tested in human healthy subjects using enteric coated capsules for administration directly to the duodenum. The results from the human study also indicate a tenfold increased absorption as compared to a control tablet or solution of the thrombin inhibitor base only.

Enhancing effect, glycerides from different sources compared: most efficient enhancing effect
SMILES: CCCCCCCC(=O)OCC(O)CO (stereo not shown) [glyceryl mono-octanoate(1-monocaprylin), glyceryl mono-octanoate]
